Data as given in a melting point compilation (Tetko et al.; mined from patent text by program, amines drawn as free bases though some values may be those of a salt).

SMILES	melting point
COC(=O)C1CCC2C3CCC4CC(O)CCC4(C)C3C(NC(=O)OCC(Cl)(Cl)Cl)CC12C (stereo not drawn)	140 to 143 °C
Cc1ccc2cccc(OCc3c(Cl)ccc(OCCN)c3Cl)c2n1	123 to 125 °C
Nc1ccc(OCC(F)(F)F)cc1[N+](=O)[O-]	84 to 85 °C
CC12CCC(=O)C=C1CC(O)C1C2CCC2(C)C(O)CCC12 (stereo not drawn)	191 to 193 °C
CN(C)C1Cc2cc(Br)cc([N+](=O)[O-])c2NC1=O (stereo not drawn)	162 to 165 °C
CN1CC(CO)C=C2c3cccc4[nH]c(Br)c(c34)CC21 (stereo not drawn)	193 °C
CNc1c(OCCN(Cc2ccccc2)C(=O)OC(C)(C)C)cccc1[N+](=O)[O-]	91 to 93 °C
COC(C)CNc1nccc(-c2ccnc(Nc3cccc(F)c3)c2)n1 (stereo not drawn)	103 to 105 °C
CC1(C)OC(=S)Nc2ccc(-c3cncc(Br)c3)cc21	252 to 253 °C
COC(=O)c1cc2nnn(-c3ccccc3)c2nc1OCc1ncnn1C	188 to 190 °C
COCC1CN(c2ccc(C3CCC(OC)CC3)cc2)C(=O)O1 (stereo not drawn)	82 to 83 °C
CC1OC(n2cc(F)c(NC(=O)c3ccc4c(c3)OCO4)nc2=O)C(O)C1O (stereo not drawn)	124 to 125 °C
CCC(O)CN1N=C(c2ccccc2)CC(O)C1=O (stereo not drawn)	92 to 94 °C
O=Cc1cccc2ncc(-c3ccccc3)nc12	149 °C
O=C1Nc2ccccc2N(C(=O)CN2CCOCC2)c2ncncc21	240 to 242 °C
Cc1cc(COC2=NS(=O)(=O)c3ccccc32)sn1	202 to 204 °C
CCOC(=O)c1cc2cccnc2[nH]1	153 to 156 °C
Nc1cc(C(F)(F)F)c(-c2cc(Br)c(N)cc2C(F)(F)F)cc1Br	154 to 157 °C
Cn1cncc1C(O)(c1ccc2c(c1)OCCO2)c1ccc2[nH]c(=O)nc(-c3cccc(Cl)c3)c2c1 (stereo not drawn)	> 260 °C
Cc1cc2cc(CN3CCC(CCC(=O)N4CCCCC4)CC3)cnc2cc1NC(=O)c1ccc(-c2ccc(F)cc2)cc1	189 to 191 °C
CC1(C)CN=C2C(=O)c3cc(C#N)ccc3N2C1	178 to 184 °C
COc1ccc(-c2cnc(NS(=O)(=O)c3ccc(C)cc3)nc2)cc1	220 to 223 °C
OC(CCCl)COc1ccc(Br)cc1 (stereo not drawn)	75 to 78 °C
O=C(O)c1cn(C2CC2)c2c(F)c(-n3cnc(-c4ccccc4)c3)c(F)cc2c1=O	286 to 288 °C
CCOC(=O)CCC1(NC(=O)c2ccc3ccccc3c2)C(=O)N(c2ccccc2)c2cc(OCC)ccc21 (stereo not drawn)	195 to 196 °C
Oc1ccc(-c2ccc(-c3ccc(O)cc3)c(-c3ccc(OCCN4CCCC4)cc3)n2)cc1	145 to 150 °C

SMILES	melting point
CCOC(=O)c1cn(-c2c[nH]nn2)c2cc(F)c(F)cc2c1=O	298 °C
O=C(NCC(=O)N1CCC(=C2c3ccccc3C=Cc3ccccc32)CC1)OCc1ccccc1	142 to 144 °C
COc1ccc(C(=O)COc2ccc(C(=O)O)c(O)c2)cc1C12CC3CC(CC(C3)C1)C2	225 to 226 °C
Cc1cc(NC(=O)N(C)C)no1	150 to 152 °C
CCCCC(CC)COc1cc(CCl)c(OC)cc1CCl (stereo not drawn)	58 to 60 °C
C[Si](C)(C)CCc1cn(-c2c(Cl)cc(C(F)(F)F)cc2Cl)nc1C#N	128 to 129 °C
O=C1CCC(=O)N1Cc1nc2sc3c(c2c(-c2ccc(O)cc2)c1Cl)CCS(=O)C3 (stereo not drawn)	274 to 276 °C
Cc1noc(-c2ccc(Br)c(C)c2)n1	75 to 77 °C
CC1(C2CCCC2)Cc2cc(OCC#N)c(Cl)c(Cl)c2C1=O (stereo not drawn)	129 to 131 °C
CCCC(C)c1nn(-c2ccc(C(F)(F)F)cn2)cc1C=O (stereo not drawn)	63 to 64 °C
C=C(C)C(=O)Oc1ccc(NS(C)(=O)=O)c(C)c1	95 to 97 °C
CC(C)c1ccc(Oc2ccc(C(=O)c3ccc(Oc4ccc(C(C)C)cc4)cc3)cc2)cc1	104 to 105 °C
C#CCOc1cccc(CCCCCCCCCCCCCCC)c1	26 to 27 °C
CN(C)CCCOc1ccc(-c2nnc(CSCCOc3ccccc3)o2)nc1	47 to 49 °C
CC(C)(C)c1ccc(C2(C)CC(=Cc3ccccc3)CC2=O)cc1 (stereo not drawn)	140 to 143 °C
CC(=O)Nc1nc(-c2ccccc2)c(CCOC(C)=O)c2ncnn12	79 to 80 °C
CS(=O)(=O)Nc1cccc(Nc2nc(NCc3cccc(C#N)c3)c3nc[nH]c3n2)c1	128 to 131 °C
CC(C)(C)OC(=O)C(CCCCNC(=O)c1ccc(Cl)c(S(N)(=O)=O)c1)NC1Cc2ccccc2C1 (stereo not drawn)	65 to 68 °C
COc1cc2c3c(sc2c(Cl)c1Cl)CCCC3	123 to 125 °C
CC(=O)NC[C@H]1CN(c2ccc(N3CCC(O)CC3)cc2)C(=O)O1	64 to 66 °C
Cc1nc2c(N)nc3ccccc3c2n1OC(C)C	243 °C
CCOCc1nc2c(N)nc(C)c(C)c2n1CCNC(=O)NC1CCCCC1	188 to 190 °C
COc1cc(OC)c2c(=O)c3ccccc3oc2c1	170 to 171 °C
O=C(O)c1ccccc1-c1nnc(-c2ccccc2)o1	173 to 175 °C
Cc1ccc2c(c1)[nH]c(=O)n2CCCN1CCC2(CC1)C(=O)NCN2c1ccccc1	256 °C
COc1ccc(C(=O)Nc2ccccc2)cc1NCc1ccccc1F	142 to 144 °C

SMILES	melting point
Cc1oc(-c2ccc(F)cc2)nc1CO	153 to 155 °C
FC(F)(F)Oc1ccc(-c2ncc(CBr)cn2)cc1	80 to 81 °C
Oc1ccc(Br)cc1C12CC3CC(CC(C3)C1)C2	140 to 141 °C
CCCCCCOc1ccc(-c2ncc(C#N)c(Cl)n2)cc1	133 °C
CN(C)c1ccncc1CCCOc1ccccc1OCCCC(=O)O	106 to 108 °C
O=c1cc2c(nn1-c1ccc(Cl)cc1)-c1cc(F)ccc1S(=O)CC2 (stereo not drawn)	233 to 235 °C
C=CCCC(C#N)(C#N)Cc1ccc(OCC=C)cc1	77.7 °C
O=CNc1cccc2ccc(O)cc12	203 to 205 °C
O=C(NCCCCNS(=O)(=O)c1ccc(Oc2ccccc2)cc1)P(=O)(O)O	143 to 145 °C
O=C(Nc1ccccc1)c1ccc([N+](=O)[O-])cc1	90 to 93 °C
O=C1Nc2ccccc2N(C(=O)Cc2ccccc2)c2cscc21	165 to 168 °C
Cc1[nH]c2ccccc2c1[C@H]1CC[C@@H](N2CCN(c3cccc4[nH]ccc34)CC2)CC1	279 to 280 °C
CC(Sc1nc2ccccc2s1)C(N)=O (stereo not drawn)	144 to 145 °C
CSc1ccc(N(C(C)C)S(=O)(=O)c2ccc(C)cc2)c([N+](=O)[O-])c1	124 to 126 °C
OC(CN1CCNC1=S)c1cccc(C(F)(F)F)c1 (stereo not drawn)	117 °C
O=c1cc(C(F)(F)F)[nH]n1-c1cccc([N+](=O)[O-])c1	166 °C
CCc1cc2c(s1)-n1c(C)nnc1C(CCC(=O)Nc1ccccc1)N=C2c1ccc(Cl)cc1 (stereo not drawn)	183 to 185 °C
CSc1ccc2c3c(cccc13)C(=O)N2	167 to 172 °C
S=C1Nc2cc(Br)ccc2N2CCc3cccc1c32	196 to 197 °C
N#Cc1ncn2c1[C@@H]1CCN1C(=O)c1c(Br)cccc1-2	133 to 136 °C
O=C(O)CCC(=O)c1ccc(-c2ccc(Br)cc2F)cc1	145 to 147 °C
CON=Cc1ccc2c(c1)ncn2-c1cccc(-c2ccoc2)c1	147 to 148 °C
CCCCCCC(=O)N[C@@H](C(=O)OCc1ccccc1)[C@@H](C)O	70 to 73 °C
Cc1nc(N2CCN(Cc3ccc(OC(F)(F)F)cc3)C2=O)sc1C(=O)NCCc1ccccc1	184 to 185 °C
CNCC(O)C1=CC2(CCCC2)c2ccccc21 (stereo not drawn)	75 to 77 °C
Cc1cccc(NC(=O)NCC(=O)N(c2ccccc2)C(C(=O)OC(C)(C)C)C(=O)OC(C)(C)C)c1	175 °C

SMILES	melting point
CC(C)CCC1C(=O)N(CCl)S(=O)(=O)N1C (stereo not drawn)	59 to 60 °C
O=C(CCc1ccc(S(=O)(=O)N(C(=O)c2c3ccccc3nc3ccccc23)c2ccc3c(c2)OCCO3)cc1)ON1C(=O)CCC1=O	140 °C
CCOCCn1c(CCl)nc2ccccc21	75.5 to 77 °C
Cc1c(C#N)sc2nc(-c3ccc4c(c3)OCO4)nc(N3CCOCC3)c12	197 to 198 °C
O=Cc1ccc(OCCN2OCc3ccccc3C2=O)cc1	102 °C
Cc1ccc(C)c(SCCC(=O)O)c1	100 to 102 °C
CCOCCn1c(N2CCCN(CCC3(c4ccccc4)CCN(C(=O)c4cc(NC(C)=O)ccc4OC)C3)CC2)nc2ccccc21 (stereo not drawn)	145 to 150 °C
c1ccc(CC2CNCCNCCNCCNCCN2)cc1 (stereo not drawn)	98 to 100 °C
O=C(O)C1=CCC2CC(=O)N12 (stereo not drawn)	172 to 174 °C
CCNc1nc(=S)n(CC)c2nc(C3CC3)[nH]c12	265 °C
CCCCc1c(C(C)C)nc(C(C)C)c(C(C)O)c1-c1ccc(F)cc1 (stereo not drawn)	103 to 104 °C
COc1ccccc1-n1c(=O)[nH]c2c(C(N)=O)nc(-c3cccc(OC(F)(F)F)c3)nc21	269 to 272 °C
CNC(=O)C1=CC(C)(COC)Oc2ccc([N+](=O)[O-])cc21 (stereo not drawn)	128 to 130 °C
N#Cc1cc(Cn2nnc(C(N)=O)c2N)ccc1Cl	172 to 175 °C
CC(C)(C)c1cc(CCc2ccccc2NC(=O)NC2CCN(Cc3cccnc3)CC2)cc(C(C)(C)C)c1O	156 to 158 °C
Cc1ccccc1N1CCN(S(=O)(=O)CC23CCC(CC2=NO)C3(C)C)CC1 (stereo not drawn)	174 to 175 °C
N#Cc1cnc2c(c1Nc1ccc(Oc3ccccc3)cc1)C=C1N=CN=C1C2	> 270 °C
O=C1C=C(Br)C(CBr)(NCc2ccccc2)O1 (stereo not drawn)	137 to 139 °C
Clc1ccc(-c2cc(C3CCN(CC4CC4)CC3)n[nH]2)cc1	176 to 178 °C
Cc1ccc2oc(C=Cc3ccc(C(=O)O)cc3)cc(=O)c2c1	308 to 312 °C
O=[N+]([O-])c1ccc(F)c(Br)c1	59 °C
CCOC(=O)C1=NN(c2ccc(Cl)cc2)C(c2ccc(Cl)cc2)C1 (stereo not drawn)	128 to 130 °C
O=C(Nc1ccc2ccc(Cl)nc2n1)c1ccc(F)cc1	236 °C
COC(=O)c1[nH]c2ccc(C)cc2c1Sc1ccc(Cl)cc1	230 to 233 °C
Cc1c(-c2ccccc2)c(N2CC[C@H](N(C)C)C2)c2oc(/C=C/c3ccccc3)nc2c1C#N	165 to 166 °C
